Reference: patent publication US8614208B2, “Fused heterocyclic ring derivative and use thereof” (Takeda Pharmaceutical Company Limited, priority 2009, dated 2013)

Target: T1, Smo (Mus musculus, UniProt P56726)
T1 construct: endogenous in cells; host or cells: NIH-3T3 cells stably carrying the Gli reporter plasmid
Experiment: Gli reporter luciferase assay in NIH-3T3/Gli reporter cells stimulated with mouse Shh-N end fragment
Format: cell-based
Settings: NIH3T3; 1 μM compound; NIH-3T3/Gli reporter cells with mouse Shh-N culture supernatant, 48 hr; luciferase activity, control without compound as 100; read-out: inhibitory rate (%) at 1 μM
Description: Gli reporter plasmid was constructed by inserting 8×Gli-binding site and chicken δ-crystalline promoter into the upstream of luc+ of pGL3 (Promega).
prepared in reference to the base sequence described in GenBank accession No.; X02187, and chicken genome DNA (Clontech) as a template. PCR reaction was performed using Pfu Turbo (Stratagene) and following the attached protocol. The obtained 108 bp fragment was digested with restriction enzymes BglII and HindIII, and inserted into BglII-HindIII site of pGL3 to give plasmid pGL3/δ-cry promoter.
As 8×Gli-binding site, a sequence containing eight 9-bp Gli bound consensus sequences (GACCACCCA) described in Yoon et al., J. Biol. Chem., vol. 273, pages 3496-3501 (1998) was prepared from synthetic DNA. That is, two synthetic DNAs,
were heat treated at 95° C. for 2 minutes, and incubated at 37° C. for 1 hr for annealing to give a double stranded DNA of the above-mentioned two synthetic DNAs. The obtained double stranded DNA was digested with restriction enzymes BglII and KpnI, and the obtained DNA fragment was inserted into BglII-KpnI site of pGL3/δ-cry promoter to construct plasmid pGL3/δ-cry promoter, 8×Gli binding site, i.e., Gli reporter plasmid.
HEK293 cells were grown in D-MEM medium (Invitrogen) containing 10% fetal bovine serum in a 10 cm dish and pcDNA3.1/mShh-N was introduced into the cells using FuGENE6 (Roche Applied Science). Thereafter, the HEK293 cells were cultured in a carbon dioxide gas incubator at 37° C. for 24 hours, and the medium was exchanged with D-MEM medium (Invitrogen) containing 2% fetal bovine serum. After culturing for 48 hr, a culture supernatant containing recombinant type mouse Shh-N end fragment was obtained by filtration using a filter ([…]).
Using D-MEM (Invitrogen) containing 10% fetal bovine serum, expression plasmid pcDNA3.1 and Gli reporter plasmid (pGL3/δ-cry promoter, 8×Gli binding site) produced by the method of Experimental Example 1 were introduced into NIH-3T3 cells grown in a 10 cm dish by the use of FuGENE6 (Roche Applied Science).
After culture for 24 hr, the cells were recovered, suspended in D-MEM medium containing 10% fetal bovine serum and supplemented with Geneticin (Life Technologies Oriental, Inc.) to a final concentration of 500 μg/ml, diluted to 10^4 cells/ml, plated on a 96 well plate, and cultured in a carbon dioxide gas incubator at 37° C. to give Geneticin resistant transformed cell line.
The obtained transformed cell line was cultured in a 96 well plate, mouse Shh-N end fragment obtained in Experimental Example 3 was added, and NIH-3T3/Gli reporter cell, which is a cell line capable of induction of luciferase expression, was selected.
NIH-3T3/Gli reporter cells cultured in D-MEM (Invitrogen) containing 10% fetal bovine serum were plated in a 96 well white plate at 1×10^4 cells/well, and cultured overnight in a carbon dioxide gas incubator at 37° C. The medium was removed, a compound (50 μl) and culture supernatant of mouse Shh-N end fragment-expressing HEK293 (D-MEM medium containing 2% fetal bovine serum, 50 μl) were added, and the cells were cultured for 48 hr in a carbon dioxide gas incubator at 37° C. Bright-Glo (Promega, 50 μl) was added, and the mixture was stirred, after which luciferase activity was measured by EnVision (PerkinElmer). The inhibition rate was calculated based on the luciferase activity of the control without addition of the compound as 100.

T1 sequence (P56726 33-793): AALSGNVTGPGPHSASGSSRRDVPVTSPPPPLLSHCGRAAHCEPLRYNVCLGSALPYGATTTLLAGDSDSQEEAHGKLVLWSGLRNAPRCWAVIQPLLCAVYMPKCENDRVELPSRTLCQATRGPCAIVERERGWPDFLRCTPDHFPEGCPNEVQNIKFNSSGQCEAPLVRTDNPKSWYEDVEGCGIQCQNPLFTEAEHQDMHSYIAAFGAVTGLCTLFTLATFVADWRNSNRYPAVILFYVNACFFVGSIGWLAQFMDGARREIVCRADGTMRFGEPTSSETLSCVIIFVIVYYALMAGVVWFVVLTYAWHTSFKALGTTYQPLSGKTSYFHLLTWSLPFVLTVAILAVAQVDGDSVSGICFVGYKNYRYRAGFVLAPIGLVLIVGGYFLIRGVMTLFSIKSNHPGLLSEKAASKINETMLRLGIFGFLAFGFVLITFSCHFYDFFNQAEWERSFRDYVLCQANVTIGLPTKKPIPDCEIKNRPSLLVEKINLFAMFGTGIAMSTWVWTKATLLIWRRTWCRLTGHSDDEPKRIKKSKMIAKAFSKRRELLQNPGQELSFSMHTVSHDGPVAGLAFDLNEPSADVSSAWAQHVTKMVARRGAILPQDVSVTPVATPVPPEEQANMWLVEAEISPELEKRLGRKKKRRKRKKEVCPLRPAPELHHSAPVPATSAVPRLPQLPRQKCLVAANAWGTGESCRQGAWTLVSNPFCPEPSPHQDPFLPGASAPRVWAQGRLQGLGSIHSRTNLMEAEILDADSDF

## CCOc1c(C(=O)NC2CCN(C(=O)CO)CC2)n(C)c2nc(C)n(CC(=O)c3ccccc3)c(=O)c12 [Example 2, 5-ethoxy-N-[1-(hydroxyacetyl)piperidin-4-yl]-2,7-dimethyl-4-oxo-3-(2-oxo-2-phenylethyl)-4,7-dihydro-3H-pyrrolo[2,3-d]pyrimidine-6-carboxamide]
  inhibition at 1 µM: 95%

## CCc1nc2c(c(OCC(F)(F)F)c(C(=O)NC3CC[S+]([O-])CC3)n2C)c(=O)n1CC(=O)c1ccccc1 (centres unmarked) [Example 21, 2-ethyl-7-methyl-N-(1-oxidetetrahydro-2H-thiopyran-4-yl)-4-oxo-3-(2-oxo-2-phenylethyl)-5-(2,2,2-trifluoroethoxy)-4,7-dihydro-3H-pyrrolo[2,3-d]pyrimidine-6-carboxamide]
  inhibition at 1 µM: 97%
